According to patent US8017611B2, “Pyridine and pyrazine derivatives -083” (AstraZeneca AB, priority 2007, dated 2011):
Like-named read-outs stand apart in the source and are kept apart here. Marks after values point to notes of the source that are not given here.

Target: T1, recombinant Axl tyrosine kinase (Homo sapiens, UniProt P30530)
T1 construct: encompassing amino acids 473 to 894 of Axl; GST (N); made in house; host or cells: SF126 insect cells
T1 sequence (P30530 473-894): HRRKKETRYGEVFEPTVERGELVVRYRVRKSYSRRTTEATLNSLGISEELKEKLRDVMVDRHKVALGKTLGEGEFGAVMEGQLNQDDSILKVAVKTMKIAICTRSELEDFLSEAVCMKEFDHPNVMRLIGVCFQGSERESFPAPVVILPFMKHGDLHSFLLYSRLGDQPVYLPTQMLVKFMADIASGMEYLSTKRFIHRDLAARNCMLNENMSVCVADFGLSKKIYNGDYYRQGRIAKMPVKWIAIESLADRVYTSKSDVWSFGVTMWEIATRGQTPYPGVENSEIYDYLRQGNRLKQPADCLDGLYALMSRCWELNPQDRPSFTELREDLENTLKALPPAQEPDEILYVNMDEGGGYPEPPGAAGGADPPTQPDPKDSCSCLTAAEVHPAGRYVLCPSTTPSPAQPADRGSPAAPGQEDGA
Assay: In vitro Axl kinase assay (AlphaScreen), Test (a)
Assay type: biochemical
Settings: for % of Axl tyrosine kinase activity inhibited at a concentration of 30 μM: test compound at 30 μM
Protocol: Test compounds were prepared as 10 mM stock solutions in dimethylsulphoxide (DMSO) and diluted in DMSO as required. Aliquots (120 nl) of compound dilutions were filled into the wells of a Greiner 384-well low volume (LV) white polystyrene plate (Greiner Bio-one) using acoustic dispensing (Labcyte Echo 550). A 10 μl mixture of recombinant purified Axl enzyme, biotinylated peptide substrate (Biotin poly-GAT; CisBio, Catalogue No. 61GATBLB), 0.2 μM adenosine triphosphate (ATP) and a buffer solution [comprising 20 mM Tris-HCl pH 7.5 buffer, 0.01% v/v Tween, 5 mM dithiothreitol (DTT) and 10 mM manganese chloride] was incubated with the compounds at room temperature for 20 minutes.
Control wells that produced a minimum signal corresponding to 100% inhibited enzyme were created by adding 10 μM of Staurosporine.
The percentage kinase inhibition value is the percentage of Axl tyrosine kinase activity inhibited by the test compound at a concentration of 1 μM.

[1] = test compound at 1 μM, first value quoted, read-out: % Axl tyrosine kinase inhibition at 1 μM concentration
[2] = test compound at 1 μM, first value quoted

| SMILES | % Axl tyrosine kinase inhibition at 1 μM concentration [2] | other results |
| --- | --- | --- |
| CN(C)Cc1ccc(-c2cnc(N)c(-c3nc4ccccc4o3)c2)cc1 [Example 1, 3-Benzoxazol-2-yl-5-[4-(dimethylaminomethyl)phenyl]pyridin-2-amine] | – | inhibition at 1 µM [1]: 99.8% |
| CCS(=O)(=O)c1ccc(-c2cnc(N)c(-c3nc4ccccc4o3)c2)cc1 [Example 2.1] | 93.7% | – |
| CC(C)(C)OC(=O)N1CCC(n2cc(-c3cnc(N)c(-c4nc5ccccc5o4)c3)cn2)CC1 [Example 2.2, tert-butyl 4-[4-[6-amino-5-(1,3-benzoxazol-2-yl)-3-pyridyl]pyrazol-1-yl]piperidine-1-carboxylate] | – | inhibition at 1 µM [1]: 99.5% |
| Nc1ncc(-c2cnn(C3CCNCC3)c2)cc1-c1nc2ccccc2o1 [Example 2.3, 3-(1,3-Benzoxazol-2-yl)-5-[1-(4-piperidyl)pyrazol-4-yl]pyridin-2-amine] | – | inhibition at 1 µM [1]: 98.6% |
| CCS(=O)(=O)c1cccc(-c2cnc(N)c(-c3nc4ccccc4o3)c2)c1 [Example 2.5] | 73.5% | – |
| Nc1ncc(-c2ccc(CN3CCOCC3)cc2)cc1-c1nc2ccccc2o1 [Example 2.7] | 99.1% | – |
| Nc1ncc(-c2cccc(N3CCNCC3)c2)cc1-c1nc2ccccc2o1 [Example 2.10, 3-(1,3-Benzoxazol-2-yl)-5-(3-piperazin-1-ylphenyl)pyridin-2-amine] | – | inhibition at 1 µM [1]: 99.5% |
| NCc1ccc(-c2cnc(N)c(-c3nc4ccccc4o3)c2)cc1 [Example 2.13] | 99.7% | – |
| CNC(=O)c1cccc(-c2cnc(N)c(-c3nc4ccccc4o3)c2)c1 [Example 2.17] | 68.9% | – |
| Nc1ncc(-c2ccc(N3CCNCC3)nc2)cc1-c1nc2ccccc2o1 [Example 2.19, 3-(1,3-Benzoxazol-2-yl)-5-[6-(piperazin-1-yl)-3-pyridyl]pyridin-2-amine] | – | inhibition at 1 µM [1]: 99.8% |
| Nc1ncc(-c2ccc3c(c2)OCCO3)cc1-c1nc2ccccc2o1 [Example 2.21] | 45.4% | – |
| Nc1ncc(-c2ccc3[nH]ncc3c2)cc1-c1nc2ccccc2o1 [Example 2.23] | 87.2% | – |
| Nc1ncc(-c2cnc3ccccc3c2)cc1-c1nc2ccccc2o1 [Example 2.24] | 88.9% | – |
| Nc1ncc(-c2ccnc3ccccc23)cc1-c1nc2ccccc2o1 [Example 2.25] | 60.3% | – |
| CN(C)CCCOc1ccc(-c2cnc(N)c(-c3nc4ccccc4o3)c2)cn1 [Example 2.26] | 99.5% | – |
| Nc1ncc(-c2ccc(S(=O)(=O)NC3CC3)cc2)cc1-c1nc2ccccc2o1 [Example 2.30] | 96.1% | – |
| NC(=O)c1cccc(-c2cnc(N)c(-c3nc4ccccc4o3)c2)c1 [Example 2.34] | 67.3% | – |
| COCc1ccc(-c2cnc(N)c(-c3nc4ccccc4o3)c2)cc1 [Example 2.37] | 91.9% | – |
| CN(C)S(=O)(=O)c1cccc(-c2cnc(N)c(-c3nc4ccccc4o3)c2)c1 [Example 2.39] | 17.1* % | % of Axl tyrosine kinase activity inhibited at a concentration of 30 μM: *the compound disclosed in Example 2.39 inhibited 58.6% of Axl tyrosine kinase activity at a concentration of 30 μM. |
| Nc1ncc(-c2cccc(N3CCCCC3)c2)cc1-c1nc2ccccc2o1 [Example 2.46] | 46.4% | – |
| N#CCc1cccc(-c2cnc(N)c(-c3nc4ccccc4o3)c2)c1 [Example 2.47] | 98.0% | – |
| CN(C)c1cccc(-c2cnc(N)c(-c3nc4ccccc4o3)c2)c1 [Example 2.50] | 90.0% | – |
| CS(=O)(=O)Oc1cccc(-c2cnc(N)c(-c3nc4ccccc4o3)c2)c1 [Example 2.52] | 81.0% | – |
| CN1CCN(c2cccc(-c3cnc(N)c(-c4nc5ccccc5o4)c3)c2)CC1 [Example 2.53] | 4.2**** % | % of Axl tyrosine kinase activity inhibited at a concentration of 30 μM: ****the compound disclosed in Example 2.53 inhibited 82% of Axl tyrosine kinase activity at a concentration of 30 μM. |
| CN1CCN(c2ccc(-c3cnc(N)c(-c4nc5ccccc5o4)c3)cn2)CC1 [Example 2.54] | 99.8% | – |
| Nc1ncc(-c2cnn(C3CCCCO3)c2)cc1-c1nc2ccccc2o1 (stereo not shown) [Example 2.55, 3-(1,3-benzoxazol-2-yl)-5-(1-tetrahydropyran-2-ylpyrazol-4-yl)pyridin-2-amine] | – | inhibition at 1 µM [1]: 99.2% |
| CN1CCC(n2cc(-c3cnc(N)c(-c4nc5ccccc5o4)c3)cn2)CC1 [Example 3, 3-(1,3-Benzoxazol-2-yl)-5-[1-(1-methyl-4-piperidyl)pyrazol-4-yl]pyridin-2-amine] | – | inhibition at 1 µM (1 μM, mean calculated from a larger number of replicates than the first value, read-out: % Axl tyrosine kinase inhibition at 1 μM concentration (second value, †)): 99.8%; inhibition at 1 µM [1]: 100% |

The next lines start with results.

| % Axl tyrosine kinase inhibition at 1 μM concentration [2] | SMILES | other results |
| --- | --- | --- |
| 99.1% | NCc1cccc(-c2cnc(N)c(-c3nc4ccccc4o3)c2)c1 [Example 2.4] | – |
| 99.0% | Nc1ncc(-c2cccc(CN3CCCC3)c2)cc1-c1nc2ccccc2o1 [Example 2.6] | – |
| 96.5% | CN(C)CCNC(=O)c1cccc(-c2cnc(N)c(-c3nc4ccccc4o3)c2)c1 [Example 2.8] | – |
| 40.3% | COCCOc1ccc(-c2cnc(N)c(-c3nc4ccccc4o3)c2)cc1 [Example 2.9] | – |
| 98.9% | Nc1ncc(-c2ccc(C(=O)N3CCC(O)CC3)cc2)cc1-c1nc2ccccc2o1 [Example 2.11] | – |
| 99.9% | Nc1ncc(-c2ccc(N3CCNCC3)cc2)cc1-c1nc2ccccc2o1 [Example 2.14] | – |
| 80.2% | COCc1cccc(-c2cnc(N)c(-c3nc4ccccc4o3)c2)c1 [Example 2.15] | – |
| 94.0% | Nc1ncc(-c2ccc(CO)cc2)cc1-c1nc2ccccc2o1 [Example 2.16] | – |
| 97.6% | CC(=O)Nc1cccc(-c2cnc(N)c(-c3nc4ccccc4o3)c2)c1 [Example 2.20] | – |
| 97.9% | Nc1ncc(-c2cccc(CN3CCOCC3)c2)cc1-c1nc2ccccc2o1 [Example 2.22] | – |
| 98.0% | CS(=O)(=O)Nc1ccc(-c2cnc(N)c(-c3nc4ccccc4o3)c2)cc1 [Example 2.27] | – |
| 85.1% | CN(C)S(=O)(=O)c1ccc(-c2cnc(N)c(-c3nc4ccccc4o3)c2)cc1 [Example 2.28] | – |
| 31.3% | Nc1ncc(-c2ccc3[nH]ccc3c2)cc1-c1nc2ccccc2o1 [Example 2.29] | – |
| 22.4% | Nc1ncc(-c2cccc(N3CCCC3)c2)cc1-c1nc2ccccc2o1 [Example 2.32] | – |
| 93.3% | Nc1ncc(-c2cccc(CO)c2)cc1-c1nc2ccccc2o1 [Example 2.35] | – |
| 98.5% | COCc1ccccc1-c1cnc(N)c(-c2nc3ccccc3o2)c1 [Example 2.36] | – |
| 99.0% | COc1cc(N2CCNCC2)ccc1-c1cnc(N)c(-c2nc3ccccc3o2)c1 [Example 2.38] | – |
| 40.7% | N#Cc1cccc(-c2cnc(N)c(-c3nc4ccccc4o3)c2)c1 [Example 2.40] | – |
| 99.9% | CN(C)CCNC(=O)c1ccc(-c2cnc(N)c(-c3nc4ccccc4o3)c2)cc1 [Example 2.41] | – |
| 15.8** % | Nc1ncc(-c2ccc3c(c2)OCO3)cc1-c1nc2ccccc2o1 [Example 2.42] | % of Axl tyrosine kinase activity inhibited at a concentration of 30 μM: **the compound disclosed in Example 2.42 inhibited 53.6% of Axl tyrosine kinase activity at a concentration of 30 μM. |
| 9.8*** % | Nc1ncc(-c2cccc3ccccc23)cc1-c1nc2ccccc2o1 [Example 2.43] | % of Axl tyrosine kinase activity inhibited at a concentration of 30 μM: ***the compound disclosed in Example 2.43 inhibited 57% of Axl tyrosine kinase activity at a concentration of 30 μM. |
| 25.0% | N#Cc1ccc(-c2cnc(N)c(-c3nc4ccccc4o3)c2)cc1 [Example 2.44] | – |
| 97.1% | CS(=O)(=O)c1cccc(-c2cnc(N)c(-c3nc4ccccc4o3)c2)c1 [Example 2.48] | – |
| 93.6% | Nc1ncc(-c2cccc(N3CCOCC3)c2)cc1-c1nc2ccccc2o1 [Example 2.49] | % Axl tyrosine kinase inhibition at 1 μM concentration (second value, †) (1 μM, mean calculated from a larger number of replicates than the first value): 94.5% |
| 93.1% | N#CCc1ccc(-c2cnc(N)c(-c3nc4ccccc4o3)c2)cc1 [Example 2.51] | – |
